Assay results taken from US20240299433A1, “PHARMACEUTICAL COMPOSITION CONTAINING AUCUBIN FOR PREVENTING OR TREATING MACULAR DEGENERATION” (INDUSTRIAL COOPERATION FOUNDATION JEONBUK NATIONAL …, priority 2019, published 2024).

Columns and labels:
[1] = test system: N-methyl-N-nitrosourea (MNU)-induced photoreceptor cell degeneration mouse; experiment: Electroretinogram (ERG) in MNU-induced photoreceptor cell degeneration mouse; format: in vivo, C57BL/6 mice; settings: MNU 60 mg/kg intraperitoneally, mice
Experimental: (§1) Six-week-old male C57BL/6 mice were purchased from Orient (Seongnam, Korea) and used after acclimatization for 1 week. N-methyl-N-nitrosourea (MNU, Sigma, USA) was prepared to a concentration of 1% in 0.05% acetic acid solution to induce damage and degeneration of photoreceptor cells among the morphologic changes in retinal tissue seen in macular degeneration, and 7-week-old male C57BL/6 mice were administered 1% MNU solution intraperitoneally at 60 mg/kg per animal. In the normal group, only an equivalent amount of 0.05% acetic acid was administered intraperitoneally. Aucubin was prepared by dissolving in sterile tertiary distilled water to a concentration of 15 mg/kg/day and administered orally once daily for 7 days starting on the same day as MNU administration. An electroretinogram (ERG) is a record of the electrical signals generated by the optic nerve in response to light and is used as an indicator of retinal damage or disease. The inventors measured the electroretinogram. […] After the pupils were dilated, an appropriate amount of 1% methylcellulose was applied to the eyes while maintaining body temperature, and a gold wire loop recording electrode was grounded to the cornea, a reference electrode was placed on the cheek area, and a ground electrode was grounded to the tail, and the ERG was measured using a Retiport (Roland consult, Germany). […]

[2] = test system: primary cultured retinal cells; experiment: Cell viability (MTS assay) of primary cultured retinal cells; settings: 24 hours
Experimental: Retinas were isolated by eye enucleation from C57BL/6 mice (Orient Bio, Seoul, Korea) and dissociated with papain for 15 minutes at 37° C. Neuronal basal medium (Gibco) containing ovomucoid (Sigma Aldrich) and DNase (Sigma Aldrich) was added, and cells were centrifuged at 100×g for 8 min. Cells were resuspended in the above medium without DNase. Retinal cells were maintained in neurobasal medium with L-glutamine and B27 supplement (Gibco). Retinal cells were identified by immunostaining for rhodopsin (a marker for membrane photoreceptor cells) and glial fibrillary acidic protein (Muller glia). The cultured cells contained 65% rod photoreceptor cells and 28% Muller glia. Retinal cells were plated (1*10^4 cells/well) in 96-well plates for 24 hours, and the medium was exchanged with different concentrations of aucubin in the presence or absence of MNU (100 μg/mL) and cultured for 24 hours. Cell viability was then examined using a cell proliferation assay reagent (MTS assay kit, Promega Corporation, Madison, WI, USA).

[3] = test system: N-methyl-N-nitrosourea (MNU)-induced photoreceptor cell degeneration mouse; experiment: Histopathology (H&E), outer nuclear layer thickness of retinal tissue; format: in vivo, C57BL/6 mice; settings: aucubin 15 mg/kg/day orally for 7 days; MNU 60 mg/kg intraperitoneally
Experimental: as §1, with “Aucubin was prepared by dissolving in sterile tertiary distilled water to a concentration of 15 mg/kg/day and administered orally once daily for 7 days starting on the same day as MNU administration. An electroretinogram (ERG) is a record of the electrical signals generated by the optic nerve in response to light and is used as an indicator of retinal damage or disease.” left out
After the end of study drug (aucubin) administration, necropsy was performed and the eyes were enucleated, fixed in 10% neutralized formalin for 1 day, and embedded in paraffin to prepare slide sections. […] Photoreceptor cell damage & deformation was assessed by measuring the change in thickness of the outer nuclear layer (ONL) of retinal tissue. […]

[4] = test system: N-methyl-N-nitrosourea (MNU)-induced photoreceptor cell degeneration mouse; experiment: TUNEL staining of retinal sections (anti-apoptotic effect); format: in vivo, C57BL/6 mice; settings: aucubin 15 mg/kg/day orally for 7 days; versus MNU-treated group
Experimental: as §1, with “An electroretinogram (ERG) is a record of the electrical signals generated by the optic nerve in response to light and is used as an indicator of retinal damage or disease.” left out
Retinal sections were made 4 μm thick. […] In the MNU-treated group, a number of apoptotic cells were observed, but these were mainly detected in the outer nuclear layer.

[5] = test system: N-methyl-N-nitrosourea (MNU)-induced photoreceptor cell degeneration mouse; experiment: 8-OHdG immunohistochemical staining of retinal sections (antioxidant effect); format: in vivo, C57BL/6 mice; settings: aucubin 15 mg/kg/day orally for 7 days; compared to the MNU-treated group
Experimental: as §1, with “Aucubin was prepared by dissolving in sterile tertiary distilled water to a concentration of 15 mg/kg/day and administered orally once daily for 7 days starting on the same day as MNU administration. An electroretinogram (ERG) is a record of the electrical signals generated by the optic nerve in response to light and is used as an indicator of retinal damage or disease.” left out
The formation of 8-hydroxydeoxyguanosine (8-OHdG) induced by the oxidation of guanine is a well-known marker for oxidative DNA damage. […] The Invision kit (DAKO, Carpinteria, CA, USA) detected signals visualized with aminoethylcarbazole. […]

[6] = test system: primary cultured retinal cells; experiment: Oxidative stress (DCFH fluorescent probe) in primary cultured retinal cells; format: cell-based, C57BL/6 mice; settings: aucubin in presence of MNU 100 μg/mL, 24 hours
[7] = test system: primary cultured retinal cells; experiment: Apoptosis (TUNEL staining) in primary cultured retinal cells; format: cell-based, C57BL/6 mice; settings: aucubin in presence of MNU 100 μg/mL, 24 hours
Experimental: Cells were resuspended in the above medium without DNase. […] MNU treatment was cytotoxic in retinal cells. […] Apoptotic cells were measured by TUNEL staining.

SMILES | reduction of a-wave amplitude [1] [%] | reduction of b-wave amplitude [1] [%] | cell viability compared to control cells ([2]; 100 μg/ml MNU alone) | reduction of photoreceptor cell loss (ONL thickness) [3] [%+2.9%] | photoreceptor cell death (TUNEL-positive apoptotic cells) in retina [4] | 8-OHdG levels (oxidative DNA damage) in retina [5] | oxidative stress (DCFH dye) [6] | apoptotic cells (TUNEL staining) [7] | cell viability in presence of MNU ([2]; various concentrations of aucubin, MNU 100 μg/mL)
CN(N=O)C(N)=O [MNU, N-methyl-N-nitrosourea] | 78 | 63 | approximately 70% |  |  |  |  |  | 
OCC1=C[C@@H](O)[C@@H]2C=CO[C@@H](O[C@@H]3O[C@H](CO)[C@@H](O)[C@H](O)[C@H]3O)[C@H]12 [aucubin] |  |  |  | 9.8 | significantly prevented this cell death | significantly reduced | significantly decreased | significantly decreased | cell viability was restored in a dose-dependent manner
